Measurements taken from patent publication US10189845B2, “4,6-substituted-pyrazolo[1,5-a]pyrazines as janus kinase inhibitors” (ARRAY BIOPHARMA INC., priority 2014, dated 2019).
Where two headings read alike, the source gives them in different places.

Key:
Type in all cases: biochemical
Human Tyk2 kinase domain = Human Tyk2 kinase domain (Homo sapiens (Human), UniProt P29597); assay: Tyk2 Inhibition Assay (Example A, Omnia kinase fluorescence peptide substrate assay); details: TYK2 Enzyme IC50 1 mM ATP, averaged IC50 ranges
Human Tyk2 kinase domain, sequence (P29597 886-1187): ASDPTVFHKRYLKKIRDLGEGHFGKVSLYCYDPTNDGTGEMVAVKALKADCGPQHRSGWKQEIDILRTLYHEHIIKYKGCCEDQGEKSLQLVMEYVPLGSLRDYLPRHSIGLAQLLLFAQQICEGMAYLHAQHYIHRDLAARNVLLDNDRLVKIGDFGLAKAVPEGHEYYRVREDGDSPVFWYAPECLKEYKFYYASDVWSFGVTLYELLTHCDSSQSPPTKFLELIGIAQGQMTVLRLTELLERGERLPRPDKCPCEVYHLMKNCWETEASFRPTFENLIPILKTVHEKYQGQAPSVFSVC
Outline: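 Omnia Sox-peptide kinetic fluorescence assay (ex 360/em 485 nm, read every 50 s for 45 min) with 1 nM human Tyk2 kinase domain (aa 886–1187, His tag cleaved, baculovirus-expressed), 1 mM ATP, 8 μM Omnia Y12 peptide, in 25 mM HEPES pH 7.4, 10 mM MgCl2, 0.01% Triton X-100, 1 mM DTT, 2% DMSO. IC50 from 4-parameter logistic fit of percent of control.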

JAK1 = JAK1 (Homo sapiens (Human), UniProt P23458); assay: JAK1 Inhibition Assay (Example B, Omnia kinase fluorescence peptide substrate assay)
JAK1, sequence (P23458 whole entry): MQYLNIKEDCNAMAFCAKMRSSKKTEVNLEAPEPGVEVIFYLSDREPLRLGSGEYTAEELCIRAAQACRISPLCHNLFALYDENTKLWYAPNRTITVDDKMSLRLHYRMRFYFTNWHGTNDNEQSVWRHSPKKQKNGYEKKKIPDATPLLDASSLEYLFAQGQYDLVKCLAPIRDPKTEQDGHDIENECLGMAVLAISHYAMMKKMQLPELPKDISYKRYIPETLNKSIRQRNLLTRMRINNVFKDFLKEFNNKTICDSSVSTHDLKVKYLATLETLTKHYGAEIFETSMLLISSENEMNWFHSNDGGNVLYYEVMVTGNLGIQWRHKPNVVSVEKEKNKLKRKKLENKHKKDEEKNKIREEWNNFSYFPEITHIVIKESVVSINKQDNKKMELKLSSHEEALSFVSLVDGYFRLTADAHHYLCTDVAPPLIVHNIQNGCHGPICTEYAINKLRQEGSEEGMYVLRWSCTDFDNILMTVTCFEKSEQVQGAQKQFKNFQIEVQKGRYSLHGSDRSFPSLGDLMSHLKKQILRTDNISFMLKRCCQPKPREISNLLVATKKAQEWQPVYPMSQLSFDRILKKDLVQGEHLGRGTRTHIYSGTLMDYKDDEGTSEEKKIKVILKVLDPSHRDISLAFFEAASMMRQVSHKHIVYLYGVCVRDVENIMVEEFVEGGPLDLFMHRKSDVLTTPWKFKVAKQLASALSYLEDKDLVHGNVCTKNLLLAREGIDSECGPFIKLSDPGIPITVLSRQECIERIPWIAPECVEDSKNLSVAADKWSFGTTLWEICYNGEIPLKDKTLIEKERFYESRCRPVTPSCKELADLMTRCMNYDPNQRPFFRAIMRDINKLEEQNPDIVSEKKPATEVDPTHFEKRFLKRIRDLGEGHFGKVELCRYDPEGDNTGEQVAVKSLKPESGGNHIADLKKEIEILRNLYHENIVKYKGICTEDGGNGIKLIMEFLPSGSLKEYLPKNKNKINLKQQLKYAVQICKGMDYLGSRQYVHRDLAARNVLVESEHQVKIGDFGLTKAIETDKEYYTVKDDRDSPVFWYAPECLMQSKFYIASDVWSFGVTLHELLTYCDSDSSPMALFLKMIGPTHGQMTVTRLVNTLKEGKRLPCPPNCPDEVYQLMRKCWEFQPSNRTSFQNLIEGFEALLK
Outline: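 Recombinant human JAK1 (12.5 nM) with 1 mM ATP and 8 μM Omnia Y12 Sox-peptide in 25 mM HEPES pH 7.4, 10 mM MgCl2, 0.01% Triton X-100, 1 mM DTT, 2% DMSO final. Phosphorylation read kinetically (ex 360/em 485 nm, 45 min); IC50 from 4-parameter fit of percent of control.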

JAK2 = JAK2 (Homo sapiens (Human), UniProt O60674); assay: JAK2 Inhibition Assay (Example C, Omnia kinase fluorescence peptide substrate assay); details: JAK2 Enzyme IC50 1 mM ATP, averaged IC50 ranges
JAK2, sequence (O60674 whole entry): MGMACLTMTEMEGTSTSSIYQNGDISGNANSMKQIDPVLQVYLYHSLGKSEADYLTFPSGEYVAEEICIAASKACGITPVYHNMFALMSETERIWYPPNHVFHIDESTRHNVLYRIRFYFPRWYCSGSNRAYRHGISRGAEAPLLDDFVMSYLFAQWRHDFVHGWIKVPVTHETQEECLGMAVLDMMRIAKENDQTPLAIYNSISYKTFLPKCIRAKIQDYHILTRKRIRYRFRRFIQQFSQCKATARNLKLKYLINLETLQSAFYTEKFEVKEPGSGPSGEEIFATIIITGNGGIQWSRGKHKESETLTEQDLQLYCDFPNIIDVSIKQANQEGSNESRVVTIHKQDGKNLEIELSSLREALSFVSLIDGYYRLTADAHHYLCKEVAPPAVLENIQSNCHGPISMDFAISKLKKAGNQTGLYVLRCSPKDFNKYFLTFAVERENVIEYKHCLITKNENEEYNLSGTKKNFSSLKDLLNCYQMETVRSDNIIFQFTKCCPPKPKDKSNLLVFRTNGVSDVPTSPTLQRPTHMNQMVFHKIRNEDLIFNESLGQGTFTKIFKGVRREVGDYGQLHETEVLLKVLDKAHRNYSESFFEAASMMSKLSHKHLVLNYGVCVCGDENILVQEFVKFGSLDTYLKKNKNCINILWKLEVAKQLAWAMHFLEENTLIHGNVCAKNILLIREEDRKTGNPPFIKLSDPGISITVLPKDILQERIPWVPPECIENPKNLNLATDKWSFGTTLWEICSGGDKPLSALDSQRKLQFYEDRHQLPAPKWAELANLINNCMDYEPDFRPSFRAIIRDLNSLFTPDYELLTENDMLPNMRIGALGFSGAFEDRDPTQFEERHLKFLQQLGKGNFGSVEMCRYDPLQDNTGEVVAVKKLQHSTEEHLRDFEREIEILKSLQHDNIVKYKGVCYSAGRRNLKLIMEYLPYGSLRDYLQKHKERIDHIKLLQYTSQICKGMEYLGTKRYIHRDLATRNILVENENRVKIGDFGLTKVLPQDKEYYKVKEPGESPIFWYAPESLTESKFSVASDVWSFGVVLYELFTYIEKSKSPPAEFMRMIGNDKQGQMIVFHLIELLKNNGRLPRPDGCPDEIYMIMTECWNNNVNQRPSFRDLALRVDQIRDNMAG
Outline: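 4 nM JAK2 with 1 mM ATP and 10 μM Omnia Y7 peptide in 25 mM HEPES pH 7.4, 10 mM MgCl2, 0.01% Triton X-100, 1 mM DTT, 2% DMSO. Sox fluorescence (ex 360/em 485 nm) read every 50 s for 45 min; IC50 from 4-parameter fit of percent of control.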

JAK3 = JAK3 (Homo sapiens (Human), UniProt P52333); assay: JAK3 Inhibition Assay (Example D, Omnia kinase fluorescence peptide substrate assay)
JAK3, sequence (P52333 whole entry): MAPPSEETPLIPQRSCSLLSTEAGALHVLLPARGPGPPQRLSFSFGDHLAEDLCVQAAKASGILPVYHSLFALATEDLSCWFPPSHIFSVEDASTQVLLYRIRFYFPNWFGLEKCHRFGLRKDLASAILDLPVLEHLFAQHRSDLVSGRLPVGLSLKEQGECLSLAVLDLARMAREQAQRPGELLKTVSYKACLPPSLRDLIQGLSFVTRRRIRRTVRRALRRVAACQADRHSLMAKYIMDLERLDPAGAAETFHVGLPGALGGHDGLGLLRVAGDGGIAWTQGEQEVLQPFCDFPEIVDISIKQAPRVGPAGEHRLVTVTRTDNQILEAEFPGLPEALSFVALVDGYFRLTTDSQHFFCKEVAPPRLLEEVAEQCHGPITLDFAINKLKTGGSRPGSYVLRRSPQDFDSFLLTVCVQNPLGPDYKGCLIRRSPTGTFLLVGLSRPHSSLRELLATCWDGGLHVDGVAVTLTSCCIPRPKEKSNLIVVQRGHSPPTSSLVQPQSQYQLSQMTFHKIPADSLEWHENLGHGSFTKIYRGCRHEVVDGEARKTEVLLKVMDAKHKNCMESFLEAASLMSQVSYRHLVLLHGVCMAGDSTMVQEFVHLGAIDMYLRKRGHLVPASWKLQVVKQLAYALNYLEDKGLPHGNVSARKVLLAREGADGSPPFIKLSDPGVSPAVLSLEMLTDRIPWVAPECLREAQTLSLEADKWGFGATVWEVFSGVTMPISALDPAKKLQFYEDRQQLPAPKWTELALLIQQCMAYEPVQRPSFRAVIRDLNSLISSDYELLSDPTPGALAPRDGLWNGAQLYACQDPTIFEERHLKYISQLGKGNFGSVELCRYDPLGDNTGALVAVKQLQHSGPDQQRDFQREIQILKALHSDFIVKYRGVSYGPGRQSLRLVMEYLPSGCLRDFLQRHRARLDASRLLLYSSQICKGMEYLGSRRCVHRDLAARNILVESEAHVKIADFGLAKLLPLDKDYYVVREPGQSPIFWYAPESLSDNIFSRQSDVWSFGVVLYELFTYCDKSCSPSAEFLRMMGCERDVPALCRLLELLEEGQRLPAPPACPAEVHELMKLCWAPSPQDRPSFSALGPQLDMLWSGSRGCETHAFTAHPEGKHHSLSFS
Outline: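 Mixture held 2 nM JAK3, 1 mM ATP and 10 μM Omnia Y7 peptide in 25 mM HEPES pH 7.4, 10 mM MgCl2, 0.01% Triton X-100, 1 mM DTT, 2% DMSO final. Sox fluorescence (ex 360/em 485 nm) was read every 50 s for 45 min. IC50 came from a 4-parameter logistic fit of percent of control.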

[1] = JAK1 Enzyme IC50 1 mM ATP, 1 mM ATP, averaged IC50 ranges

SMILES	IC50 (Human Tyk2 kinase domain) [nM]	IC50 (JAK1; [1]) [nM]	IC50 (JAK2) [nM]	IC50 (JAK3) [nM]	IC50 (JAK1) [nM]
CCC[C@H](C)n1cc(-c2nc(-c3cnn(C[C@@H](O)CO)c3)cn3nccc23)cn1 [Example 72, (R)-3-(4-(4-(1-((S)-pentan-2-yl)-1H-pyrazol-4-yl)pyrazolo[1,5-a]pyrazin-6-yl)-1H-pyrazol-1-yl)propane-1,2-diol]	100 to 1000	100 to 1000	100 to 1000	1000 to 10000	–
CCC[C@@H](C)n1cc(-c2nc(-c3cnn(C[C@@H](O)CO)c3)cn3nccc23)cn1 [Example 73, (R)-3-(4-(4-(1-((R)-pentan-2-yl)-1H-pyrazol-4-yl)pyrazolo[1,5-a]pyrazin-6-yl)-1H-pyrazol-1-yl)propane-1,2-diol]	10 to 100	1000 to 10000	10 to 100	1000 to 10000	–
CCC[C@@H](C)n1cc(-c2nc(-c3cnn(C[C@H](O)CO)c3)cn3nccc23)cn1 [Example 74, (S)-3-(4-(4-(1-((R)-pentan-2-yl)-1H-pyrazol-4-yl)pyrazolo[1,5-a]pyrazin-6-yl)-1H-pyrazol-1-yl)propane-1,2-diol]	10 to 100	1000 to 10000	100 to 1000	1000 to 10000	–
CC(C)C[C@H](C)n1cc(-c2nc(-c3cnn(C[C@@H](O)CO)c3)cn3nccc23)cn1 [Example 75, (R)-3-(4-(4-(1-((S)-4-methylpentan-2-yl)-1H-pyrazol-4-yl)pyrazolo[1,5-a]pyrazin-6-yl)-1H-pyrazol-1-yl)propane-1,2-diol]	100 to 1000	1000 to 10000	100 to 1000	1000 to 10000	–
CC(C)C[C@H](C)n1cc(-c2nc(-c3cnn(C[C@H](O)CO)c3)cn3nccc23)cn1 [Example 76, (S)-3-(4-(4-(1-((S)-4-methylpentan-2-yl)-1H-pyrazol-4-yl)pyrazolo[1,5-a]pyrazin-6-yl)-1H-pyrazol-1-yl)propane-1,2-diol]	100 to 1000	1000 to 10000	100 to 1000	1000 to 10000	–
CC(C)C[C@@H](C)n1cc(-c2nc(-c3cnn(C[C@@H](O)CO)c3)cn3nccc23)cn1 [Example 77, (R)-3-(4-(4-(1-((R)-4-methylpentan-2-yl)-1H-pyrazol-4-yl)pyrazolo[1,5-a]pyrazin-6-yl)-1H-pyrazol-1-yl)propane-1,2-diol]	100 to 1000	1000 to 10000	100 to 1000	1000 to 10000	–
CC(C)C[C@@H](C)n1cc(-c2nc(-c3cnn(C[C@H](O)CO)c3)cn3nccc23)cn1 [Example 78, (S)-3-(4-(4-(1-((R)-4-methylpentan-2-yl)-1H-pyrazol-4-yl)pyrazolo[1,5-a]pyrazin-6-yl)-1H-pyrazol-1-yl)propane-1,2-diol]	100 to 1000	1000 to 10000	100 to 1000	1000 to 10000	–
CCC(C1CC(F)(F)C1)n1cc(-c2nc(-c3cnn(C[C@@H](O)CO)c3)cn3nccc23)cn1 (stereo partly drawn) [Example 79, (2R)-3-(4-(4-(1-(1-(3,3-difluorocyclobutyl)propyl)-1H-pyrazol-4-yl)pyrazolo[1,5-a]pyrazin-6-yl)-1H-pyrazol-1-yl)propane-1,2-diol]	10 to 100	–	10 to 100	1000 to 10000	10 to 100
CCC(CC)n1cc(-c2nc(-c3cnn(C(CO)CO)c3)cn3nccc23)cn1 [Example 81, 2-(4-(4-(1-(pentan-3-yl)-1H-pyrazol-4-yl)pyrazolo[1,5-a]pyrazin-6-yl)-1H-pyrazol-1-yl)propane-1,3-diol]	10 to 100	–	10 to 100	1000 to 10000	100 to 1000
CCC[C@H](C)n1cc(-c2nc(-c3cnn(C(CO)CO)c3)cn3nccc23)cn1 [Example 82, (S)-2-(4-(4-(1-(pentan-2-yl)-1H-pyrazol-4-yl)pyrazolo[1,5-a]pyrazin-6-yl)-1H-pyrazol-1-yl)propane-1,3-diol]	100 to 1000	–	10 to 100	1000 to 10000	100 to 1000
CCC[C@@H](C)n1cc(-c2nc(-c3cnn(C(CO)CO)c3)cn3nccc23)cn1 [Example 83, (R)-2-(4-(4-(1-(pentan-2-yl)-1H-pyrazol-4-yl)pyrazolo[1,5-a]pyrazin-6-yl)-1H-pyrazol-1-yl)propane-1,3-diol]	10 to 100	–	10 to 100	1000 to 10000	1000 to 10000
CC[C@H](C)n1cc(-c2nc(-c3cnn(C(CO)CO)c3)cn3nccc23)cn1 [Example 84, (S)-2-(4-(4-(1-(sec-butyl)-1H-pyrazol-4-yl)pyrazolo[1,5-a]pyrazin-6-yl)-1H-pyrazol-1-yl)propane-1,3-diol]	10 to 100	–	10 to 100	1000 to 10000	10 to 100
CC(C)C[C@H](C)n1cc(-c2nc(-c3cnn(C(CO)CO)c3)cn3nccc23)cn1 [Example 87, (S)-2-(4-(4-(1-(4-methylpentan-2-yl)-1H-pyrazol-4-yl)pyrazolo[1,5-a]pyrazin-6-yl)-1H-pyrazol-1-yl)propane-1,3-diol]	100 to 1000	–	100 to 1000	1000 to 10000	1000 to 10000
CC(C)C[C@@H](C)n1cc(-c2nc(-c3cnn(C(CO)CO)c3)cn3nccc23)cn1 [Example 88, (R)-2-(4-(4-(1-(4-methylpentan-2-yl)-1H-pyrazol-4-yl)pyrazolo[1,5-a]pyrazin-6-yl)-1H-pyrazol-1-yl)propane-1,3-diol]	100 to 1000	–	100 to 1000	1000 to 10000	1000 to 10000
CCC(CC)n1cc(-c2nc(-c3cnn([C@@H](C)[C@H](O)CO)c3)cn3nccc23)cn1 [Example 89, (2S,3S)-3-(4-(4-(1-(pentan-3-yl)-1H-pyrazol-4-yl)pyrazolo[1,5-a]pyrazin-6-yl)-1H-pyrazol-1-yl)butane-1,2-diol]	10 to 100	–	10 to 100	1000 to 10000	100 to 1000
CCC(CC)n1cc(-c2nc(-c3cnn(CC(=O)NC(C)C)c3)cn3nccc23)cn1 [Example 97, N-isopropyl-2-(4-(4-(1-(pentan-3-yl)-1H-pyrazol-4-yl)pyrazolo[1,5-a]pyrazin-6-yl)-1H-pyrazol-1-yl)acetamide]	10 to 100	–	100 to 1000	1000 to 10000	100 to 1000
CCC(CC)n1cc(-c2nc(-c3cnn(CC(O)CN)c3)cn3nccc23)cn1 (centres unmarked) [Example 98, 1-amino-3-(4-(4-(1-(pentan-3-yl)-1H-pyrazol-4-yl)pyrazolo[1,5-a]pyrazin-6-yl)-1H-pyrazol-1-yl)propan-2-ol]	10 to 100	1000 to 10000	10 to 100	1000 to 10000	–
CCC(CC)n1cc(-c2nc(-c3cnn(C[C@H](O)CN(C)C)c3)cn3nccc23)cn1 [Example 99, (R)-1-(dimethylamino)-3-(4-(4-(1-(pentan-3-yl)-1H-pyrazol-4-yl)pyrazolo[1,5-a]pyrazin-6-yl)-1H-pyrazol-1-yl)propan-2-ol]	10 to 100	1000 to 10000	10 to 100	1000 to 10000	–
CCC(CC)n1cc(-c2nc(-c3cnn(C[C@H](O)CNC)c3)cn3nccc23)cn1 [Example 100, (R)-1-(methylamino)-3-(4-(4-(1-(pentan-3-yl)-1H-pyrazol-4-yl)pyrazolo[1,5-a]pyrazin-6-yl)-1H-pyrazol-1-yl)propan-2-ol]	10 to 100	1000 to 10000	10 to 100	1000 to 10000	–
CCC(CC)n1cc(-c2nc(-c3cnn(C[C@@H](O)CN(C)C)c3)cn3nccc23)cn1 [Example 101, (S)-1-(dimethylamino)-3-(4-(4-(1-(pentan-3-yl)-1H-pyrazol-4-yl)pyrazolo[1,5-a]pyrazin-6-yl)-1H-pyrazol-1-yl)propan-2-ol]	10 to 100	1000 to 10000	10 to 100	1000 to 10000	–
CCC(CC)n1cc(-c2nc(-c3cnn(C[C@@H](O)CNC)c3)cn3nccc23)cn1 [Example 102, (S)-1-(methylamino)-3-(4-(4-(1-(pentan-3-yl)-1H-pyrazol-4-yl)pyrazolo[1,5-a]pyrazin-6-yl)-1H-pyrazol-1-yl)propan-2-ol]	100 to 1000	1000 to 10000	10 to 100	1000 to 10000	–
CCC(CC)n1cc(-c2nc(-c3cnn(C[C@H](O)CN4CC(OC)C4)c3)cn3nccc23)cn1 [Example 103, (R)-1-(3-methoxyazetidin-1-yl)-3-(4-(4-(1-(pentan-3-yl)-1H-pyrazol-4-yl)pyrazolo[1,5-a]pyrazin-6-yl)-1H-pyrazol-1-yl)propan-2-ol]	10 to 100	1000 to 10000	10 to 100	1000 to 10000	–
CCC(CC)n1cc(-c2nc(-c3cnn(C[C@@H](O)CN4CC(OC)C4)c3)cn3nccc23)cn1 [Example 104, (S)-1-(3-methoxyazetidin-1-yl)-3-(4-(4-(1-(pentan-3-yl)-1H-pyrazol-4-yl)pyrazolo[1,5-a]pyrazin-6-yl)-1H-pyrazol-1-yl)propan-2-ol]	10 to 100	1000 to 10000	10 to 100	1000 to 10000	–
